Measured values reported in PubChem BioAssay AID624361 (Broad Institute, 2012).
Records with an inconclusive call do not appear. Active and inactive are the calls of the source. No rule for the calls is given here.

System: not listed separately
Test: inhibitors of LMP1-driven NF-kB reporter, dose response, cell-based, EBV LMP1, luciferase, dry powder, set 2 (AID 624361)
Details: LMP1-induced NF-kappaB luciferase reporter cells, luminescence; at 30 µM (top of the series)

Row | SMILES | activity change, negative = inhibition
1 | C[C@H](NC(=O)C[C@@H]1C=C[C@H](NC(=O)Cc2ccccn2)[C@H](CO)O1)c1ccccc1 | -0.706% (inactive)

Same assay, conditions: LMP1-induced NF-kappaB luciferase reporter cells, luminescence; at 35 µM (top of the series)

Row | SMILES | activity change, negative = inhibition
2 | O=C(Cc1ccccn1)NCC[C@@H]1CC[C@@H](NC(=O)Nc2ccc(Cl)cc2)[C@@H](CO)O1 | 1.94% (inactive)
3 | C[C@@H](NC(=O)C[C@H]1C=C[C@@H](NC(=O)Cc2ccccn2)[C@@H](CO)O1)c1ccccc1 | 0.795% (inactive)
4 | C[C@@H]1CN([C@H](C)CO)C(=O)c2c(c3ccccc3n2C)-c2ccccc2CO[C@@H]1CN(C)C(=O)Nc1ccc(F)cc1 | -8.91% (inactive)
5 | CC(C)(C)[S@@](=O)N1Cc2cc(C(=O)NCCc3ccncc3)nc(-c3cccc(-c4cccnc4)c3)c2[C@H]1CCO | -15% (inactive)
6 | CO[C@@H]1CN(C)C(=O)c2ccc(NC(C)=O)cc2OC[C@@H](C)N(Cc2ccccc2F)C[C@H]1C | 0.476% (inactive)
7 | C[C@H](CO)N1C[C@H](C)[C@@H](CN(C)Cc2ccc(C(F)(F)F)cc2)Oc2ccc(NC(=O)Cc3ccccc3)cc2CC1=O | -11.3% (inactive)
8 | C[C@@H](NC(=O)C[C@H]1C=C[C@@H](NC(=O)Cc2ccccn2)[C@H](CO)O1)c1ccccc1 | -5.56% (inactive)
9 | C[C@@H](NC(=O)C[C@H]1C[C@@H]2c3cc(NC(=O)c4cccnc4)ccc3O[C@@H]2[C@@H](CO)O1)c1ccccc1 | -0.38% (inactive)
10 | C[C@H](CO)N1C[C@H](C)[C@H](CN(C)Cc2ccc(Oc3ccccc3)cc2)Oc2ccc(NC(=O)CCCN(C)C)cc2C1=O | 16.2% (inactive)
11 | C[C@H](NC(=O)C[C@@H]1C=C[C@H](NC(=O)Cc2ccccn2)[C@@H](CO)O1)c1ccccc1 | -0.999% (inactive)
12 | O=C(Cc1ccccn1)NCC[C@H]1CC[C@@H](NC(=O)Nc2ccc(Cl)cc2)[C@@H](CO)O1 | -0.381% (inactive)
13 | C[C@@H](NC(=O)C[C@H]1C=C[C@H](NC(=O)Cc2ccccn2)[C@H](CO)O1)c1ccccc1 | 9.56% (inactive)
14 | C[C@@H](NC(=O)C[C@@H]1C=C[C@H](NC(=O)Cc2ccccn2)[C@@H](CO)O1)c1ccccc1 | 8.29% (inactive)
15 | CO[C@H]1CN(C)C(=O)c2ccc(NC(=O)C3CC3)cc2OC[C@H](C)N(C(=O)c2ccccn2)C[C@H]1C | -14% (inactive)
16 | Cc1noc(C)c1S(=O)(=O)Nc1ccc2c(c1)C(=O)N([C@H](C)CO)C[C@@H](C)[C@@H](CN(C)Cc1ccc(C(F)(F)F)cc1)OCCCC[C@@H](C)O2 | 1.95% (inactive)
17 | C[C@@H](NC(=O)C[C@@H]1C=C[C@H](NC(=O)Cc2ccccn2)[C@H](CO)O1)c1ccccc1 | -1.52% (inactive)
18 | CCC(=O)N1Cc2cc(C(=O)Nc3nccs3)nc(-c3cccc(-c4ccccc4OC)c3)c2[C@H]1CCO | -7.28% (inactive)
19 | C[C@H](CO)N1C[C@H](C)[C@H](CN(C)Cc2ccc(C(F)(F)F)cc2)Oc2ccc(NC(=O)Cc3ccccc3)cc2CC1=O | 4.01% (inactive)
20 | C[C@H](NC(=O)C[C@H]1C=C[C@@H](NC(=O)Cc2ccccn2)[C@H](CO)O1)c1ccccc1 | -1.8% (inactive)

Row | SMILES | activity change, negative = inhibition
21 | C[C@@H]1CN([C@@H](C)CO)C(=O)c2c(c3ccccc3n2C)-c2ccccc2CO[C@H]1CN(C)C(=O)Nc1ccc(F)cc1 | -8.29% (inactive)
22 | C[C@@H](NC(=O)C[C@H]1C=C[C@H](NC(=O)Cc2ccccn2)[C@@H](CO)O1)c1ccccc1 | 9.43% (inactive)
23 | C[C@H]1CN([C@@H](C)CO)C(=O)Cc2cc(NC(=O)Cc3ccccc3)ccc2O[C@H]1CN(C)Cc1ccc(C(F)(F)F)cc1 | 11.5% (inactive)
24 | C[C@@H]1CN([C@H](C)CO)C(=O)c2c(c3ccccc3n2C)-c2ccccc2CO[C@H]1CN(C)C(=O)Nc1ccc(F)cc1 | -3.16% (inactive)
25 | O=C(Cc1ccccn1)NCC[C@H]1CC[C@H](NC(=O)Nc2ccc(Cl)cc2)[C@@H](CO)O1 | -4.61% (inactive)
26 | C[C@H](NC(=O)C[C@H]1C=C[C@H](NC(=O)Cc2ccccn2)[C@@H](CO)O1)c1ccccc1 | 3.66% (inactive)
27 | COC(=O)C[C@H]1C[C@H]2c3cc(NC(=O)CN(C)C)ccc3O[C@H]2[C@H](CO)O1 | -4.37% (inactive)
28 | C/C=C/c1cccc(-c2nc(C(=O)Nc3nccs3)cc3c2[C@@H](CCO)N(C(=O)NC(C)C)C3)c1 | -17% (inactive)
29 | CS(=O)(=O)Nc1ccc2c(c1)[C@H]1C[C@@H](CC(=O)NCC3CC3)O[C@@H](CO)[C@H]1O2 | 8.63% (inactive)
30 | CS(=O)(=O)Nc1ccc2c(c1)[C@@H]1C[C@H](CC(=O)NCC3CC3)O[C@H](CO)[C@@H]1O2 | -4.41% (inactive)
31 | O=C(Cc1ccccn1)NCC[C@H]1CC[C@H](NC(=O)Nc2ccc(Cl)cc2)[C@H](CO)O1 | -1.01% (inactive)
32 | O=C(Cc1ccccn1)NCC[C@@H]1CC[C@@H](NC(=O)Nc2ccc(Cl)cc2)[C@H](CO)O1 | 10.1% (inactive)
33 | C[C@@H](NC(=O)C[C@@H]1C=C[C@@H](NC(=O)Cc2ccccn2)[C@H](CO)O1)c1ccccc1 | 5.05% (inactive)
34 | C[C@@H](NC(=O)C[C@@H]1C=C[C@@H](NC(=O)Cc2ccccn2)[C@@H](CO)O1)c1ccccc1 | 9.33% (inactive)
35 | O=C(C[C@@H]1C[C@H]2c3cc(NS(=O)(=O)c4ccc(F)cc4)ccc3O[C@H]2[C@@H](CO)O1)NC1CCCCC1 | -2.44% (inactive)
36 | C[C@@H]1CN([C@@H](C)CO)C(=O)c2c(c3ccccc3n2C)-c2ccccc2CO[C@@H]1CN(C)C(=O)Nc1ccc(F)cc1 | -5.35% (inactive)
37 | Cc1noc(C)c1S(=O)(=O)Nc1ccc2c(c1)C(=O)N([C@H](C)CO)C[C@H](C)[C@@H](CN(C)Cc1ccc(C(F)(F)F)cc1)OCCCC[C@@H](C)O2 | -11.1% (inactive)
38 | O=C(Cc1ccccn1)NCC[C@@H]1CC[C@H](NC(=O)Nc2ccc(Cl)cc2)[C@@H](CO)O1 | -3.42% (inactive)
39 | C[C@H](NC(=O)C[C@H]1C[C@@H]2c3cc(NC(=O)c4cccnc4)ccc3O[C@@H]2[C@@H](CO)O1)c1ccccc1 | 0.067% (inactive)

System: LMP1-induced NF-kappaB luciferase reporter cells, luminescence
Test: as above
Details: not given

Row | SMILES | AC35
40 | COc1cccc(S(=O)(=O)N(C)C[C@@H]2Oc3cc(C4=CCCCC4)ccc3S(=O)(=O)N([C@@H](C)CO)C[C@@H]2C)c1 | 24 µM
41 | Cc1noc(C)c1S(=O)(=O)Nc1ccc2c(c1)C(=O)N([C@H](C)CO)C[C@H](C)[C@H](CN(C)Cc1ccc(C(F)(F)F)cc1)OCCCC[C@H](C)O2 | 27.8 µM
42 | Cc1ccc(S(=O)(=O)N(C)C[C@H]2Oc3cc(C#Cc4ccncc4)ccc3S(=O)(=O)N([C@@H](C)CO)C[C@@H]2C)cc1 | 10.2 µM
43 | C[C@@H]1CN([C@@H](C)CO)S(=O)(=O)c2ccc(C#C[C@@H](C)O)cc2O[C@H]1CN(C)Cc1ccc(-c2ccccc2)cc1 | 21.5 µM
44 | C[C@H](CO)N1C[C@H](C)[C@H](CN(C)C(=O)NC2CCCCC2)Oc2cc(/C=C/c3ccccc3)ccc2S1(=O)=O | 24 µM
45 | CC(C)NC(=O)N1Cc2cc(C(=O)NC3Cc4ccccc4C3)nc(-c3cccc(-c4cccnc4)c3)c2[C@H]1CCO | 28.2 µM
